Measured values taken from US20200268832A1, “COMPOSITIONS FOR DELIVERY TO AND TREATMENT OF ATHEROSCLEROTIC PLAQUES” (Sanford Burnham Prebys Medical Discovery Institute, priority 2015, published 2020).
Where a SMILES comes first, the peptide text is derived from it. Bridges are numbered along the chain shown (N, C = ends).

Target: T1, p32 protein (Homo sapiens, UniProt Q07021)
T1 construct: 6xHis; host or cells: Rosetta-gami-2 cells (Novagen); an E. coli strain by own knowledge
T1 sequence (Q07021 74-282): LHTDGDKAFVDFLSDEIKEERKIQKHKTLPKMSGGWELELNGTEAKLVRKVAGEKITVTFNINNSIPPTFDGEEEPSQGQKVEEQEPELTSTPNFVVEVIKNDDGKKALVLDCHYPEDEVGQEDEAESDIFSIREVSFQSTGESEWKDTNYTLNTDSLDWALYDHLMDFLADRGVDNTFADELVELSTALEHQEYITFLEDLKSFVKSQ
Experiment: Fluorescence polarization binding of FAM-labeled peptides to p32 (KD)
Conditions: affinity of binding to p32
Procedure: FIGS. 2A-2D are graphs showing FP- and phage binding-based validation of p32 binding peptides and hit compounds. […] Measurements were performed with PheraStar FS plate reader (BMG Labtech, Ortenberg, Germany) on 384-well plate. (B) Affinity of the 7 hit compounds in dose-dependent (8.25 μM to 100 μM) inhibition of FAM-TT1 binding to p32 in FP assay. (C) Assessment of hit compound binding to a non-target secondary protein, NRP-1, to determine the specificity of the hit compounds in FP assay. A known NRP-1 binding peptide, RPARPAR (SEQ ID NO:18), was used as a control. (D) Effect of the hit compounds on the TT1 phage binding to p32 protein. TT1 phage binding to p32 in the presence of 100 μM hit compounds was determined in ELISA-type of binding assay. Each data point presents average±S.D., n=4.
FIG. 6 is a graph showing the effect of buffer solution on interaction of TT1 and p32. […] The binding was measured by fluorescence polarization (FP) and observed as increased FP value. Binding constants (KD) were calculated by fitting the binding curves into Michaelis-Menten kinetics. […]
Fluorescence polarization (FP)-based assay was used for solution-based screening of compound libraries for p32 binding compounds. […] The protein was purified by IMAC using HIS-select resin (Sigma) with an imidizole gradient from 20-300 mM and eluted fractions were analyzed on analytical SDS-PAGE. […]

SMILES: C[C@@H]1NC(=O)CNC(=O)[C@H](CCCNC(=N)N)NC(=O)[C@H](CCCCN)NC(=O)[C@@H](N)CSSC[C@@H](C(=O)O)NC(=O)[C@H]([C@@H](C)O)NC(=O)[C@H](CO)NC(=O)[C@H](CCCNC(=N)N)NC1=O [TT1, CKRGARSTC] (H-CKRGARSTC-OH; disulfide 1-9)
- Kd: 2300 nM
